Laboratory results: patent US20120237533A1, “Compositions and Methods for Inducing Apoptosis in Prostate Cancer Cells” (priority 2009, published 2012)

Key:
[1] = test system: Prostate cancer C42 cells; test: Apoptosis assays: caspase-3 activity and time lapse video recording; format: cell-based; settings: for concentration at which maximal caspase activation is achieved: comparison of PI3K inhibitors
Protocol: FIG. 6. […] Prostate cancer C42 cells were treated with 10 nM of TGFα-pseudomonas exotoxin chimera (PE) and 500 nM PI3K inhibitor ZSTK474 (ZSTK) or PI3K inhibitor LY294002 (LY) individually and in combination. A) Caspase activity was measured 3 h and 6 h after treatments began; B) Time lapse video-recording of C42 cells treated with 10 nM PE or combination of 10 nM PE and 500 nM ZSTK474. Representative images taken 2, 5, and 14 h after treatments began; C) Caspase activity measured 6 h after cells were treated with increasing concentrations of PE and 25 mcM of LY294002 (LY).
Western blotting—Tumors were excised, homogenized on ice in lysis buffer [10% glycerol, 50 mM PIPES-KOH (pH 7.4), 5 mM EDTA, 1% NP40, 1 mM DTT, protease and phosphatase inhibitors;] centrifuged 10 min 14,000 G to precipitate unsoluble fraction. Soluble fraction was resolved by SDS-PAGE followed by Western blotting on nitrocellulose. Nitrocellulose membranes were probed with antibodies to Akt and phospho-Akt according to manufacturer's instructions; the appropriate secondary antibodies were then applied and positive signals detected by enhanced chemiluminescence. Immunofluorescence—Cells were plated on glass coverslips in 6-well plates and treated and fixed with 10% formalin in PBS (pH 7.4) for 15 min. The cells were then blocked in 2.5% goat serum in PBS-T for 30 min at 37° C. Blocking solution was used to prepare a 1:300 mixture of mouse-J591 anti-PSMA antibodies subsequent procedures were done at room temperature. Incubation with primary antibodies was continued for 3 h. The cells were then washed three times with PBS-T and incubated with a mixture of goat antimouse antibodies conjugated with fluorescein, diluted in blocking solution at a ratio of 1:300 each. One h later, cells were washed with PBS-T, stained with DAPI, and mounted on glass microscope slides. Image analysis was done on a Nikon microscope equipped with a digital camera and software from Inovision (Durham, N.C.). Tumor Implantations—Nude mice (BALB/cAnNCrj-nu from Charles River) received four subcutaneous injections or two intratibial injections of 2×10^6 cells with Matrigel. Injections were made using an insulin syringe and a 27 gauge needle. All manipulations with animals were conducted in humane manner, in strict adherence with a protocol approved by institutional ACUC, which was designed to minimize animal suffering. Luminescence Imaging—Tumor growth was analyzed with a Xenogen IVIS® 100 optical imaging system (Caliper Life Sciences, Hopkinton, Mass.). Animals were immobilized for substrate injection and imaging through an attached gas anesthesia system consisting of 2% isoflurane/O2. To account for background and nonspecific luminescence, mice were imaged before injection of […]. Animals were injected with 100 μl of the firefly luciferase substrate luciferin (3.5 mg/ml in PBS) and imaged 15 minutes later in prone and supine positions (5 minutes each). Whole-body images were obtained using the Living Image® software provided with imaging system. A gray-scale photographic image and the bioluminescent color image are superimposed to provide anatomic registration of the light signal. A region of interest (ROI) was manually selected over the luminescent signal, and the intensity was recorded as photons/second within an ROI. Apoptosis Assays—Apoptosis in whole cell populations was quantified by measuring caspase-3 activity with the fluorogenic substrate Ac-DEVD-7-amido-4-trifluoromethyl-coumarin (Bachem) as specified by the manufacturer. For these experiments, attached and floating cells were collected and lysed in caspase lysis buffer (1% Nonidet P-40, 150 mM NaCl, 20 mM HEPES, 1 mM EDTA, 1 mM dithiothreitol, and 5 μg/ml aprotinin, leupeptin, and pepstatin). Fluorescence was recorded each 15 min for 1 h, and caspase activity was expressed in arbitrary units. […]

[2] = test system: subcutaneous xenograft tumors; test: Luminescence imaging of subcutaneous xenograft tumors injected with LY294002; format: in vivo, mice; settings: injections into subcutaneous xenograft tumors, versus DMSO
Text: (§1) FIG. 4A) Representative luminescent images (superimposed on black and white images) of mice injected with solvent (DMSO) or LY294002. Injection site is indicated by arrow. FIG. 4B) Changes in luminescence of subcutaneous xenograft tumors injected with LY294002 or DMSO (error bars show standard deviations between 3 tumors injected with each agent). FIG. 4C) Tissue sections of xenograft tumors. Arrowheads point at apoptotic cells. FIG. 4D) Inhibition of Akt phosphorylation in xenografts injected with LY294002. Western blotting of tumor lysates.
(§2) Western blotting—Tumors were excised, homogenized on ice in lysis buffer [10% glycerol, 50 mM PIPES-KOH (pH 7.4), 5 mM EDTA, 1% NP40, 1 mM DTT, protease and phosphatase inhibitors;] centrifuged 10 min 14,000 G to precipitate unsoluble fraction. […] Nitrocellulose membranes were probed with antibodies to Akt and phospho-Akt according to manufacturer's instructions; the appropriate secondary antibodies were then applied and positive signals detected by enhanced chemiluminescence. […] Luminescence Imaging—Tumor growth was analyzed with a Xenogen IVIS® 100 optical imaging system (Caliper Life Sciences, Hopkinton, Mass.). […] To account for background and nonspecific luminescence, mice were imaged before injection of luciferase. […] Fluorescence was recorded each 15 min for 1 h, and caspase activity was expressed in arbitrary units. […]

PI3K [3] = test: Western blotting of tumor lysates for Akt phosphorylation; format: in vivo, mice; settings: xenografts injected with LY294002
Text: as §1, §2

PI3K [4] = settings: J. Natl. Can. Inst. 2006, 98, 545-556; cited from earlier work

SMILES	concentration at which maximal caspase activation is achieved [1] [µM]	tumor growth (luminescence of xenograft tumors) [2]	induction of apoptosis ([1]; 25 μM LY294002 in combination with 10 nM of TGFαPE40 fusion)	induction of apoptosis (caspase activity) ([1]; C42 cells, 25 mcM LY294002 with increasing concentrations of PE, 6 h)	PI3K activity (Akt phosphorylation in xenografts) (PI3K [3])	PI3K inhibition relative to LY294002 (PI3K [4])	induction of apoptosis ([1]; 0.5 μM of ZSTK474 in combination with 10 nM of TGFαPE40 fusion)	induction of apoptosis (caspase activity, time lapse video) ([1]; C42 cells, 500 nM ZSTK474 with 10 nM TGFα-pseudomonas exotoxin chimera (PE), 3 h and 6 h)
Cn1c(=O)n(-c2ccc(C(C)(C)C#N)cc2)c2c3cc(-c4cnc5ccccc5c4)ccc3ncc21 [BEZ235]	5	–	–	–	–	–	–	–
O=c1cc(N2CCOCC2)oc2c(-c3ccccc3)cccc12 [LY294002]	25	inhibit	maximal induction of apoptosis	synergistic induction of apoptosis	inhibit PI3K activity	–	–	–
FC(F)c1nc2ccccc2n1-c1nc(N2CCOCC2)nc(N2CCOCC2)n1 [ZSTK474]	0.5	–	–	–	–	more efficiently than LY294002	maximal induction of apoptosis	synergistic induction of apoptosis
